Assay results from publication PMC10065284, “Protease inhibition, in vitro antibacterial and IFD/MM-GBSA studies of ciprofloxacin-based acetanilides” (PLOS ONE, 2023).

Target: T1, serine protease
T1 construct: purified serine protease, indigenously isolated from B. subtilis sp
Assay: casein hydrolysis assay with purified protease, inhibition kinetics
Assay type: biochemical, Bacillus subtilis

SMILES: COC(=O)c1cn(C2CC2)c2cc(N3CCN(CC(=O)Nc4ccccc4)CC3)c(F)cc2c1=O [4a, methyl 1-cyclopropyl-6-fluoro-4-oxo-7-(4-(2-oxo-2-(phenylamino)ethyl)piperazin-1-yl)-1,4-dihydro-quinoline-3-carboxylate]
- Ki: 100 nM
